System: rabbit articular chondrocytes
Test: Matrix production of rabbit articular chondrocytes in the presence of IL-1
Format: cell-based
Conditions: 1 × 10^−6 M; IL-1β 1 ng/ml; until day 3; vehicle = 100
Experimental: Four NZW line rabbits (Kitayama Labes., Co Ltd.; male; 4-week-old) were sacrificed with bleeding under ether anesthesia and knee joints of femur side were collected aseptically. Only the cortical layer was scrapped with a surgical knife in phosphate buffer (pH 7.2) containing 0.2% glucose and then placed into a 50 ml tube containing phosphate buffered saline containing 0.2% glucose. The collected knee joint cortical layer was cut into as small sections as possible on a dish with a razor, combined with 50 ml of phosphate buffer (100 mg trypsin, 40 mg EDTA·4 Na; pH 7.2) containing 0.2% glucose, supplied with 10× trypsin-ethylenediamine tetraacetic acid tetra sodium salt (EDTA·4Na: GIBCO; Cat. No. 15400-054) and shaken at 37° C. for 15 minutes.
After shaking, the precipitates were collected by centrifugation (1,400 rpm) and washed twice with 40 ml of phosphate buffer (pH 7.2) with 0.2% glucose.
To the washed precipitates was added 40 ml of α-minimum essential medium (MEM: GIBCO; Cat. No. 12571-063) containing 60 mg of collagenase for cell diffusion (Wako Pure Chemical Industries, Ltd., 034-10533) and antibiotics (200 U/ml penicillin G and 200 μg/ml streptomycin sulfate) (GIBCO; Cat. No. 15140-122), and the mixture was transferred to a 100 ml beaker containing a sterilized stirrer bar.
The incubation was conducted in a CO2 incubator at 37° C. for 30 minutes under stirring with a stirrer bar. Deoxyribonuclease I (Takara Shuzo Co., LTD.; Cat. No. 2210A) was then added at a concentration of 70 U/ml. The cultivation was conducted under the same condition for another 30 minutes. The supernatant of the culture was collected in another vessel and the remaining cartilage slips were then cultured again for about 30 minutes in freshly prepared α-minimum essential medium containing 60 mg of collagenase and 70 U/m1 deoxyribonuclease I.
To the previously collected culture supernatant and the last culture, from which cartilage slips had been removed using a 40 μm Cell Strainer (FALCON; Cat. No. 2340), 10 ml of α-minimum essential medium (MEM: GIBCO; Cat. No. 12571-063) containing 10% fetal calf serum (GIBCO Cat. No. 10099-141) and antibiotics (200 U/ml penicillin G and 200 μg/ml streptomycin sulfate) (GIBCO; Cat. No. 15140-122) was added and centrifuged (1,400 rpm, 10 minutes).
The precipitates were washed twice with α-minimum essential medium containing 10% fetal calf serum and antibiotics, suspended with an appropriate volume of the same medium, and seeded into 48-well plates (20,000 cells/well). […]
After staining, the cells were washed 3 times with 1 ml of phosphate buffer (pH 7.2). Alcian blue which had stained cartilage matrix was dissolved with 0.25 ml of 6 M aqueous guanidine hydrochloride solution and a portion of which was used to determine the absorbance at 620 nm. […]

| SMILES | Proteoglycan Production (%) |
| --- | --- |
| COc1ccc(C(=O)Nc2c(Cl)cncc2Cl)cc1OC1CCCC1 [Compound (11)] | 121 |
| CCOc1cc2cc(CO)c(CO)c(-c3ccnc(-n4nc(-c5cccnc5)c5ccccc5c4=O)c3)c2cc1OCC [Compound (2)] | 143 |

From patent publication US8399466B2, “Composition for regenerative treatment of cartilage disease” (Mitsubishi Tanabe Pharma Corporation, priority 2001, dated 2013)
